Patent US11161845B2, “Pyrrolopyridine-aniline compounds for treatment of dermal disorders” (Nflection Therapeutics, Inc., priority 2017, dated 2021)

Experiments:
MEK1 = molecular target: T1, MEK1 (Homo sapiens, UniProt Q02750); assay: MEK inhibition assay, Biological Example 1a (33P-ATP, P81 filter-binding); conditions: read-out: Assay 1: biochemical MEK IC50
T1 construct: N-terminal His-tagged recombinant human full length protein; His (N); purchased Invitrogen PV3303; host or cells: insect cells
Procedure: MEK1 inhibitory activity of compounds were tested using the following procedure. […] Activated in vitro by RAF1. MW=49.2 kDa, GenBank Accession No. NP_002746. • Substrate: 5 μM ERK2 (K52R), • Kinase-dead mutant, (GenBank Accession No. NM_0011949), aa2-358 with N-terminal His6 tag, MW=43.63 kDa, expressed in E. coli.
The substrate was prepared in freshly prepared Reaction Buffer. The kinase was delivered into the substrate solution and gently mixed. Test compounds were delivered in 100% DMSO into the kinase reaction mixture by Acoustic technology (Echo550; nanoliter range), and incubated for 20 min at room temperature. ^33P-ATP was delivered into the reaction mixture to initiate the reaction. The reaction mixture was incubated for 2 hours at room temperature. Kinase activity was detected by P81 filter-binding method.

[1] = Plasma LCMS compound levels, in vivo mouse model; parameters: species or system mice; conditions: for concentration at 1 h / concentration at 2 h: male, C57BL/6J, mouse, plasma; for concentration at 1 h: 1 h after final application; for concentration at 2 h: 2 h after final application; for Plasma LCMS Compound Levels: pre-dose (16 h)
Procedure: These mice were also shaved weekly.
Week 4 (Experiment end): Skin and blood were collected right before the last morning dose (N=3), 1 hour (N=3 mice), and 2 hours (N=3 mice) after final application; Blood draw: Plasma compound levels (LCMS); Skin biopsy: formalin fixed for histology and p-ERK staining, flash frozen for Western analysis and skin compound levels (LCMS)
Compound level analysis: Liquid chromatography with mass spectrometry method (LCMS) was used to detect compound levels in the skin and plasma. Tissues were preprocessed prior to LCMS as follows. Tissues were minced and incubated with collagenase and then finally homogenized using the stainless steel beads prior to LCMS analysis. Calibration curves and a QC test were run with each assay.

[2] = system: p-ERK in human cutaneous neurofibroma (cNF) explants; assay: Human cutaneous neurofibroma explant protocol, p-ERK suppression; format: cell-based
Source text: Study Objectives: The primary objective was to assess the efficacy of a topically-formulated compound described herein in suppressing p-ERK, a downstream biomarker of RAS/MAPK signaling in neurofibroma explants.
Primary dermal neurofibromas or cutaneous neurofibromas were obtained from patients with clinical or genetic diagnoses of NFL. […] Specimens were identified under the direction of the Principal Investigator and placed in cell proliferation media (DMEM/F12 containing penicillin/streptomycin (0.1%); fungizone (40 μg/mL); B27 (without vitamin A).
Specimens were identified under the direction of the Principal Investigator
Specimens were chopped into 2 mm fragments and placed in 24-well plates containing cell proliferation media (DMEM/F12 containing penicillin/streptomycin (0.1%); fungizone (40 μg/mL); B27 (without vitamin A) and submerged in media with drug. For topical gel application, samples were placed in 96 well plates with epidermal surface exposed to air.
The gel formulation was 1% hydroxypropyl cellulose in DMSO/PEG 400 1:1 (v/v). Harvested tissue was bisected and with half snap frozen and half fixed in 10% formalin and paraffin embedded for further analysis.
Samples were harvested at 4 hours with half snap frozen in liquid nitrogen and half fixed in 10% formalin and paraffin embedded for histologic analysis.
Western Blot analysis: For immunoblotting, total skin biopies were lysed in lysis buffer and run on Western blots. Antibodies used for immunoblotting included rabbit anti-phospho-p44/42 MAPK (1:3000, Cell Signaling) and rabbit anti-p44/42 MAPK (1:3000, Cell Signaling), rabbit anti-phospho-Mek1/2 (1:3000, Cell Signaling), mouse anti-actin (1:5000, Sigma-Aldrich), donkey anti-mouse IgG conjugated to horseradish peroxidase (HRP; 1:40,000, Amersham Biosciences) and goat anti-rabbit IgG conjugated HRP (1:40,000, Jackson ImmunoResearch).
Immunohistochemistry: Immunohistochemistry was performed on 5 pm paraffin sections. Antigen retrieval with enzyme treatment (1:1000) using standard protocols. Antibodies used were rabbit p-ERK (Cell Signaling, 4307S, 1:100). Bond Polymer Refine anti-rabbit HRP Detection (Leica Biosystems) was used according to manufacturer's protocol. Sections were then counterstained with hematoxylin, dehydrated and film coverslipped using a TissueTek-Prisma and Coverslipper (Sakura).
Data Analysis: Semi-quantative Western blot was used to assess differences in p-ERK in samples treated with a compound described herein compared to vehicle control.

C57BL/6J mice = assay: In vivo mouse model, skin and systemic toxicity of topical application (survival); conditions: for Survival Rates: twice daily 5 days per week, 10% BSA
Source text: This study was designed to assess the skin toxicity and gross systemic toxicity of twice daily topical administration of a compound disclosed herein, as well as to evaluate the effect of metabolic lability on systemic toxicity.
Study Objective: The primary objective of this study was to characterize the skin and systemic toxicity of twice daily topical application of a compound disclosed herein, applied for 25 days in mice. Secondary objectives included determination of the 25-day skin and plasma compound levels of formulations containing three dosages of compound of Ex. 2 after application to 10% body surface area (BSA) murine skin; assessment of gross systemic toxicity from the application of compound of Ex. 2 after twice daily application to 10% BSA murine skin for 25 days; and determination of the correlation of skin and plasma compound levels with associated toxicity.
Mice: 8 week old male C57BL/6J mice (Jackson Laboratories) were shaved prior to start of study and weekly.
Compound application: Compounds were dissolved in a 50% DMSO/50% propyelene glycol vehicle. 0.125 mL of the following compounds were applied to the shaved dorsal back of mice (10% BSA) twice daily for 5 days per week for a total of 24 days. The second dose was applied 8 hours after first morning dose. All mice were shaved once per week at application site.
Oral trametinib was dissolved in 0.5% hydroxypropyl methylcellulose (Sigma-Aldrich) and 0.2% Tween-80 (Sigma-Aldrich) and administered by oral gavage (0.2 mL bolus or 10 mg/kg) once daily 5 days per week. These mice were also shaved weekly.
Weekly (Weeks 0-4): body weight measurements weekly, starting week 0 until experiment end; photographs of dorsal back and face of each mouse weekly, starting week 0 until experiment end; skin; and gross stool analysis assessed weekly for heme color, starting week 0 until experiment end.
The study planned for the mice to be sacrificed at Day 25.
Kaplan Meier curves were analyzed to determine progression to skin toxicity for each arm as compared with vehicle. T-test were used to compare compound levels at each dosage. Ki-67+ cells and p-ERK expression were also assessed on a cellular level via immunostaining. Western blots informed semi-quantitative changes in p-ERK expression.

HCT116 cells = assay: HCT116 (Kras) GI50 cell-based assay (Cell Titer-Glo); conditions: Homo sapiens, HCT-116; 72 hours; read-out: Assay 3: HCT116 (Kras) GI50
Procedure: Alternatively, the following procedure can be used to measure cell-based activity. Test compounds were dissolved in DMSO in 10 mM stock. Cell Titer-Glo® 2.0 Luminescent cell viability assay reagent was purchased from Promega (Madison, Wis.). A375 and HCT116 cell lines were purchased from American Type Culture Collection (Manassas, Va.). For A375 cells, cell culture media was DMEM+10% FBS. For HCT116 cells, cell culture media was McCoy's 5A+10% FBS. All media were supplemented with 100 μg/mL of penicillin, and 100 μg/mL of streptomycin. Cultures were maintained at 37° C. in a humidified atmosphere of 5% CO2 and 95% air.
Test compounds were diluted in DMSO solution with 10-dose and 3-fold dilutions in a source plate starting at 10 mM. 25 nL of each test compound was delivered from the source plate to each well of the 384-well cell culture plates (T=Final) by Echo 550. 25 μL of culture medium containing 2000 of A375 or HCT116 cells was added to each of the wells in duplicates of the cell culture plates (T=0 and T=Final). 25 μL of Cell Titer Glo 2.0 reagent was added to each well of cell culture plate (T=0). The contents were mixed on an orbital shaker for 2 min and incubated at room temperature for 15 min to stabilize luminescent signal. Luminescence was recorded by Envision 2104 Multilabel Reader (PerkinElmer, Santa Clara, Calif.). The number of viable cells in culture was determined based on quantitation of the ATP present in each culture well. The cells in cell culture plate (T=Final) were incubated with the compounds at 37° C., 5% CO2 for 72 hours. 25 μL of Cell Titer Glo 2.0 reagent was added to each well. The contents were mixed on an orbital shaker for 2 min and incubated at room temperature for 15 min to stabilize luminescent signal. Luminescence was recorded by Envision 2104 Multilabel Reader (PerkinElmer, Santa Clara, Calif.). The number of viable cells in culture was determined based on quantitation of the ATP present in each culture well. The G150 curves were plotted using the GraphPad Prism 4 program based on a sigmoidal dose-response equation Y=Bottom+(Top−Bottom)/(1+10^((Log EC50−X)*HillSlope)). All parameters in the equation were calculated by GraphPad Prism 4 program. […] Accordingly, GI50 is the value of 10^X, where X was calculated by the Curve Fitting Equation when Y=50 using Excel.

T1 sequence (Q02750 whole entry): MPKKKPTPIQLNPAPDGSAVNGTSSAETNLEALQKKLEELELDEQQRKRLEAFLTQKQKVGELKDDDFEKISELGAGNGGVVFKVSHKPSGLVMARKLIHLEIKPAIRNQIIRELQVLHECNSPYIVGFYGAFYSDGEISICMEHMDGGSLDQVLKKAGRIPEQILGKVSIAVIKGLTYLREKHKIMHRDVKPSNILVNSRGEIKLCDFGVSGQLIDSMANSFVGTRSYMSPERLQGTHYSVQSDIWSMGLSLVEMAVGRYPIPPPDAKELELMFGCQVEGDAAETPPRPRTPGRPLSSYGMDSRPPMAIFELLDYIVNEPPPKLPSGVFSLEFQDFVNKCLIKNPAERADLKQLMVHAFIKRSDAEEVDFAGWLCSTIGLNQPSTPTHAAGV

In the case of `Cn1c(Nc2ccc(I)cc2F)c(C(=O)NOCCO)c2cccnc21` [Example 2, 2-((2-Fluoro-4-iodophenyl)amino)—N-(2-hydroxyethoxy)-1-methyl-1H-pyrrolo[2,3-b]pyridine-3-carboxamide], the IC50 (MEK1) is reported as 0.246 µM, the concentration at 1 h ([1]; topical 0.1%) is reported as 174 ng/mL and the concentration at 2 h ([1]; topical 0.1%) is reported as 37.9 ng/mL. For the same compound, the concentration at 1 h ([1]; topical 0.5%) was 1040 ng/mL, the concentration at 2 h ([1]; topical 0.5%) was 102 ng/mL and the concentration at 1 h ([1]; topical 1%) was 1020 ng/mL. For the same compound, the concentration at 2 h ([1]; topical 1%) was 262 ng/mL, the “Plasma LCMS Compound Levels” value ([1]; topical 0.1%) was 1.18 ng/mL and the “Plasma LCMS Compound Levels” value ([1]; topical 0.5%) was 4.78 ng/mL. The “Plasma LCMS Compound Levels” value ([1]; topical 1%) was 24.98 ng/mL, the “suppression of p-ERK” value ([2]; FIG. 2, 500 nM, explant submerged in media, 4 hours) was “suppression of p-ERK” and the “dose-dependent suppression of p-ERK” value ([2]; FIG. 3, explant submerged in media, 4 hours) was “dose-dependent suppression of p-ERK”. For the same compound, the “p-ERK after application of a topical gel” value ([2]; FIG. 4, gel 1% hydroxypropyl cellulose in DMSO/PEG 400 1:1, 4 hours) was “p-ERK was suppressed”, the “suppression of pERK” value ([2]; FIGS. 1a and 1b, explant submerged in media, 4 hours) was “suppression of pERK” and the “Survival Rates” value (C57BL/6J mice; topical 0.1%, Day 0) was 100%. For the same compound, the “Survival Rates” value (C57BL/6J mice; topical 0.1%, Day 3) was 100%, the “Survival Rates” value (C57BL/6J mice; topical 0.1%, Day 6) was 100% and the “Survival Rates” value (C57BL/6J mice; topical 0.1%, Day 9) was 100%. The “Survival Rates” value (C57BL/6J mice; topical 0.1%, Day 12) was 100%, the “Survival Rates” value (C57BL/6J mice; topical 0.1%, Day 15) was 100% and the “Survival Rates” value (C57BL/6J mice; topical 0.1%, Day 18) was 100%. The “Survival Rates” value (C57BL/6J mice; topical 0.1%, Day 21) was 100%, the “Survival Rates” value (C57BL/6J mice; topical 0.1%, Day 24) was 100% and the “Survival Rates” value (C57BL/6J mice; topical 0.1%, Day 25) was 100%. The “Survival Rates” value (C57BL/6J mice; topical 0.5%, Day 0) was 100%, the “Survival Rates” value (C57BL/6J mice; topical 0.5%, Day 3) was 100% and the “Survival Rates” value (C57BL/6J mice; topical 0.5%, Day 6) was 100%. For the same compound, the “Survival Rates” value (C57BL/6J mice; topical 0.5%, Day 9) was 100%, the “Survival Rates” value (C57BL/6J mice; topical 0.5%, Day 12) was 100% and the “Survival Rates” value (C57BL/6J mice; topical 0.5%, Day 15) was 100%. For the same compound, the “Survival Rates” value (C57BL/6J mice; topical 0.5%, Day 18) was 100%, the “Survival Rates” value (C57BL/6J mice; topical 0.5%, Day 21) was 100% and the “Survival Rates” value (C57BL/6J mice; topical 0.5%, Day 24) was 100%. The “Survival Rates” value (C57BL/6J mice; topical 0.5%, Day 25) was 100%, the “Survival Rates” value (C57BL/6J mice; topical 1%, Day 0) was 100% and the “Survival Rates” value (C57BL/6J mice; topical 1%, Day 3) was 100%. The “Survival Rates” value (C57BL/6J mice; topical 1%, Day 6) was 100%, the “Survival Rates” value (C57BL/6J mice; topical 1%, Day 9) was 100% and the “Survival Rates” value (C57BL/6J mice; topical 1%, Day 12) was 100%. For the same compound, the “Survival Rates” value (C57BL/6J mice; topical 1%, Day 15) was 100%, the “Survival Rates” value (C57BL/6J mice; topical 1%, Day 18) was 100% and the “Survival Rates” value (C57BL/6J mice; topical 1%, Day 21) was 100%. For the same compound, the “Survival Rates” value (C57BL/6J mice; topical 1%, Day 24) was 100%, the “Survival Rates” value (C57BL/6J mice; topical 1%, Day 25) was 100% and the “systemic toxicity compared to topical Trametinib” value (C57BL/6J mice; topical application) was “less systemic toxicity”. For the same compound, the survival (C57BL/6J mice; topically applied 0.1%, 0.5%, and 1% formulations, 25 days) was “All mice survived” and the GI50 (HCT116 cells) was 0.196 µM.
